Reference: the supplement of paper PMC11061612

Experiments:
Assay in all cases: combination Emax (second highest fraction inhibited in the dose matrix, 72 h); higher = more inhibition; extreme values may be limits of the assay
[1] = test system: CAL-33 (Oral Cavity Carcinoma)
Procedure, shortened: (§1)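 After 24 hours at 37°C and 5% CO2 in 1536-well plates, cells in DMEM/F12 or RPMI plus 10% FBS received two-drug dose matrices for 72 hours. Viability came from CellTiter-Glo 2.0 luminescence and was scaled as inhibition, anchored at 0 by vehicle wells and at 1 by blank wells. Combination Emax is taken as the second-highest inhibition in the matrix, and Bliss excess as the observed combination effect less EA + EB − EA·EB, with EA and EB the single-agent effects.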

CAL-72 (Osteosarcoma) = test system: CAL-72 (Osteosarcoma)
Procedure, shortened: as §1

[2] = test system: Detroit562 (Head and Neck Carcinoma)
Procedure, shortened: as §1

[3] = test system: FTC-133 (Thyroid Gland Carcinoma)
Procedure, shortened: as §1

[4] = test system: HeLa (Cervical Carcinoma)
Procedure, shortened: as §1

[5] = test system: Hs-746T (Gastric Carcinoma)
Procedure, shortened: as §1

[6] = test system: HuCCT1 (Biliary Tract Carcinoma)
Procedure, shortened: as §1

[7] = test system: HuH-7 (Hepatocellular Carcinoma)
Procedure, shortened: as §1

[8] = test system: L-428 (Hodgkin's Lymphoma)
Procedure, shortened: as §1

LOXIMVI (Melanoma) = test system: LOXIMVI (Melanoma)
Procedure, shortened: as §1

[9] = test system: LS-123 (Colorectal Carcinoma)
Procedure, shortened: as §1

[10] = test system: NCI-H1568 (Lung Adenocarcinoma)
Procedure, shortened: as §1

NCI-H2052 (Mesothelioma) = test system: NCI-H2052 (Mesothelioma)
Procedure, shortened: as §1

[11] = test system: NCI-H209 (Small Cell Lung Carcinoma)
Procedure, shortened: as §1

NCI-H2722 (Mesothelioma) = test system: NCI-H2722 (Mesothelioma)
Procedure, shortened: as §1

[12] = test system: NCI-H524 (Small Cell Lung Carcinoma)
Procedure, shortened: as §1

[13] = test system: OE21 (Esophageal Squamous Cell Carcinoma)
Procedure, shortened: as §1

[14] = test system: OV-56 (Ovarian Carcinoma)
Procedure, shortened: as §1

[15] = test system: SAS (Oral Cavity Carcinoma)
Procedure, shortened: as §1

[16] = test system: SW1573 (Lung Adenocarcinoma)
Procedure, shortened: as §1

Row | Compound | combination Emax [1] | combination Emax (CAL-72 (Osteosarcoma)) | combination Emax [2] | combination Emax [3] | combination Emax [4] | combination Emax [5] | combination Emax [6] | combination Emax [7] | combination Emax [8] | combination Emax (LOXIMVI (Melanoma)) | combination Emax [9] | combination Emax [10] | combination Emax (NCI-H2052 (Mesothelioma)) | combination Emax [11] | combination Emax (NCI-H2722 (Mesothelioma)) | combination Emax [12] | combination Emax [13] | combination Emax [14] | combination Emax [15] | combination Emax [16]
1 | CCN(CCO)CCCOc1ccc2c(Nc3cc(CC(=O)Nc4cccc(F)c4)[nH]n3)ncnc2c1 [AZD2811] + C=CCn1c(=O)c2cnc(Nc3ccc(N4CCN(C)CC4)cc3)nc2n1-c1cccc(C(C)(C)O)n1 [AZD1775] (first compound max 1 µM, partner max 1 µM) | 0.877 | 0.728 | 0.828 | 0.685 | 0.449 | 0.436 | 0.739 | 0.132 | 0.824 | 0.959 | 0.68 | 0.429 | 0.38 | 0.879 | 0.278 | 0.976 | 0.468 | 0.139 | 0.43 | 0.283
2 | CCN(CCO)CCCOc1ccc2c(Nc3cc(CC(=O)Nc4cccc(F)c4)[nH]n3)ncnc2c1 [AZD2811] + C[C@@H]1COCCN1C2=NC(=NC(=C2)C3(CC3)[S@](=N)(=O)C)C4=C5C=CNC5=NC=C4 [AZD6738] (first compound max 1 µM, 7x7, partner max 10 µM) | 0.936 | 0.843 | 0.913 | 0.688 | 0.567 | 0.582 | 0.773 | 0.293 | 0.78 | 0.746 | 0.632 | 0.397 | 0.359 | 0.913 | 0.326 | 1 | 0.666 | 0.609 | 0.83 | 0.266
3 | CCN(CCO)CCCOc1ccc2c(Nc3cc(CC(=O)Nc4cccc(F)c4)[nH]n3)ncnc2c1 [AZD2811] + O=C(c1cc(Cc2n[nH]c(=O)c3ccccc23)ccc1F)N1CCN(C(=O)C2CC2)CC1 [Olaparib] (first compound max 1 µM, 7x7, partner max 10 µM) | 0.732 | 0.322 | 0.702 | 0.223 | 0.293 | 0.232 | 0.25 | 0.174 | 0.348 | 0.336 | 0.301 | 0.164 | 0.184 | 0.971 | 0.204 | 0.945 | 0.255 | 0.179 | 0.197 | 0.221
4 | COc1nnc2ccc(N3CCC(c4ccc(OCCN5CCN(C)C(=O)[C@H]5C)cc4)CC3)nn12 [AZD5153] + C=CCn1c(=O)c2cnc(Nc3ccc(N4CCN(C)CC4)cc3)nc2n1-c1cccc(C(C)(C)O)n1 [AZD1775] (first compound max 1 µM, partner max 1 µM) | 0.724 | 0.647 | 0.823 | 0.837 | 0.54 | 0.535 | 0.767 | 0.682 | 0.918 | 0.892 | 0.546 | 0.438 | 0.407 | 0.912 | 0.58 | 0.908 | 0.742 | 0.279 | 0.823 | 0.544
5 | COc1nnc2ccc(N3CCC(c4ccc(OCCN5CCN(C)C(=O)[C@H]5C)cc4)CC3)nn12 [AZD5153] + CC1(C)CCC(CN2CCN(c3ccc(C(=O)NS(=O)(=O)c4ccc(NCC5CCOCC5)c([N+](=O)[O-])c4)c(Oc4cnc5[nH]ccc5c4)c3)CC2)=C(c2ccc(Cl)cc2)C1 [Venetoclax] (first compound max 1 µM, 7x7, partner max 1 µM) | 0.402 | 0.495 | 0.8 | 0.578 | 0.433 | 0.512 | 0.511 | 0.442 | 0.8 | 0.882 | 0.43 | 0.251 | 0.359 | 0.727 | 0.471 | 0.694 | 0.662 | 0.24 | 0.754 | 0.43
6 | COc1nnc2ccc(N3CCC(c4ccc(OCCN5CCN(C)C(=O)[C@H]5C)cc4)CC3)nn12 [AZD5153] + CCN(CCO)CCCOc1ccc2c(Nc3cc(CC(=O)Nc4cccc(F)c4)[nH]n3)ncnc2c1 [AZD2811] (first compound max 1 µM, 7x7, partner max 1 µM) | 0.609 | 0.503 | 0.892 | 0.678 | 0.433 | 0.572 | 0.498 | 0.463 | 0.845 | 0.861 | 0.44 | 0.283 | 0.395 | 0.458 | 0.521 | 0.97 | 0.693 | 0.283 | 0.819 | 0.504
7 | COc1nnc2ccc(N3CCC(c4ccc(OCCN5CCN(C)C(=O)[C@H]5C)cc4)CC3)nn12 [AZD5153] + C[C@@H]1COCCN1C2=NC(=NC(=C2)C3(CC3)[S@](=N)(=O)C)C4=C5C=CNC5=NC=C4 [AZD6738] (first compound max 1 µM, 7x7, partner max 10 µM) | 0.839 | 0.784 | 0.919 | 0.782 | 0.589 | 0.63 | 0.666 | 0.724 | 0.929 | 0.97 | 0.59 | 0.476 | 0.209 | 0.908 | 0.589 | 0.915 | 0.858 | 0.793 | 0.921 | 0.557
8 | COc1nnc2ccc(N3CCC(c4ccc(OCCN5CCN(C)C(=O)[C@H]5C)cc4)CC3)nn12 [AZD5153] + Cc1c2c(nn1C)CSCc1cc(n(C)n1)CSc1cc(c3ccccc3c1)OCCCc1c(C(=O)O)n(C)c3c-2c(Cl)ccc13 [AZD5991] (first compound max 1 µM, 7x7, partner max 1 µM) | 0.628 | 0.792 | 0.877 | 0.615 | 0.799 | 0.495 | 0.495 | 0.755 | 0.833 | 0.975 | 0.406 | 0.393 | 0.328 | 0.981 | 0.508 | 0.934 | 0.83 | 0.351 | 0.823 | 0.422
9 | COc1nnc2ccc(N3CCC(c4ccc(OCCN5CCN(C)C(=O)[C@H]5C)cc4)CC3)nn12 [AZD5153] + Cn1cnc2c(F)c(Nc3ccc(Br)cc3Cl)c(C(=O)NOCCO)cc21 [Selumetinib] (first compound max 1 µM, 7x7, partner max 10 µM) | 0.708 | 0.389 | 0.792 | 0.592 | 0.411 | 0.731 | 0.826 | 0.885 | 0.784 | 0.877 | 0.794 | 0.413 | 0.403 | 0.508 | 0.516 | 0.575 | 0.861 | 0.336 | 0.86 | 0.577
10 | Cc1c2c(nn1C)CSCc1cc(n(C)n1)CSc1cc(c3ccccc3c1)OCCCc1c(C(=O)O)n(C)c3c-2c(Cl)ccc13 [AZD5991] + C1CN(CCC1(C(=O)N[C@@H](CCO)C2=CC=C(C=C2)Cl)N)C3=NC=NC4=C3C=CN4 [Capivasertib] (first compound max 1 µM, 7x7, partner max 3 µM) | 0.347 | 0.415 | 0.325 | 0.663 | 0.671 | 0.337 | 0.162 | 0.208 | 0.155 | 0.313 | 0.281 | 0.191 | 0.265 | 0.36 | 0.173 | 0.452 | 0.631 | 0.169 | 0.189 | 0.231
11 | Cc1c2c(nn1C)CSCc1cc(n(C)n1)CSc1cc(c3ccccc3c1)OCCCc1c(C(=O)O)n(C)c3c-2c(Cl)ccc13 [AZD5991] + C=CCn1c(=O)c2cnc(Nc3ccc(N4CCN(C)CC4)cc3)nc2n1-c1cccc(C(C)(C)O)n1 [AZD1775] (first compound max 1 µM, partner max 1 µM) | 0.802 | 0.782 | 0.749 | 0.956 | 0.841 | 0.605 | 0.759 | 0.448 | 0.82 | 0.624 | 0.66 | 0.434 | 0.346 | 0.95 | 0.397 | 0.816 | 0.719 | 0.244 | 0.625 | 0.44
12 | Cc1c2c(nn1C)CSCc1cc(n(C)n1)CSc1cc(c3ccccc3c1)OCCCc1c(C(=O)O)n(C)c3c-2c(Cl)ccc13 [AZD5991] + CCN(CCO)CCCOc1ccc2c(Nc3cc(CC(=O)Nc4cccc(F)c4)[nH]n3)ncnc2c1 [AZD2811] (first compound max 1 µM, 7x7, partner max 1 µM) | 0.911 | 0.473 | 0.951 | 0.761 | 0.763 | 0.257 | 0.267 | 0.219 | 0.31 | 0.339 | 0.229 | 0.306 | 0.265 | 0.967 | 0.29 | 1 | 0.522 | 0.2 | 0.268 | 0.321
13 | Cc1c2c(nn1C)CSCc1cc(n(C)n1)CSc1cc(c3ccccc3c1)OCCCc1c(C(=O)O)n(C)c3c-2c(Cl)ccc13 [AZD5991] + CN(C)CCCOc1ccc(-c2ccc3ncc4c(c3c2)n(C2CCOCC2)c(=O)n4C)cn1 [AZD0156] (first compound max 1 µM, 7x7, partner max 1 µM) | 0.185 | 0.328 | 0.269 | 0.719 | 0.46 | 0.358 | 0.286 | 0.252 | 0.23 | 0.363 | 0.162 | 0.401 | 0.285 | 0.544 | 0.243 | 0.452 | 0.345 | 0.181 | 0.268 | 0.214
